Assays:
[1] = system: Stellaria media, Amaranthus retroflexus, Sinapis avreuse, Avena fatura, Lolium multiflorum and Setaria viridis; test: Post-emergence action against weeds (greenhouse pot test, visual rating); type: in vivo; settings: three-leaf stage, application rate of 3.0 kg or less of active substance per hectare, 3 to 4 weeks in greenhouse
Description: Seeds of mono- and dicotyledonous weeds are placed in sandy loam soil in cardboard pots, covered with soil and cultivated in a greenhouse under good growth conditions. Two to three weeks after sowing, the test plants are treated at the three-leaf stage. The novel compounds, formulated as wettable powders or emulsion concentrates, are sprayed in various dosages onto the green parts of the plant at an application rate of from 600 to 8001 of water/ha (converted), and, after the test plants have remained in the greenhouse for 3 to 4 weeks under optimum growth conditions, the action of the preparations is rated visually by comparison with untreated controls. The novel compositions also have good post-emergence herbicidal activity against a broad spectrum of economically important weed grasses and broad-leaved weeds.

[2] = system: Stellaria media, Amaranthus retroflexus, Sinapis avreuse, Avena fatura, Lolium multiflorum and Setaria viridis; test: Pre-emergence action against weeds (greenhouse pot test, visual rating); type: in vivo; settings: application rate of 3.0 kg or less of active substance per hectare, trial period of 3 to 4 weeks
Description: Seeds of mono- and dicotyledonous weed plants are placed in sandy loam soil in cardboard pots and covered with soil. The novel compounds, formulated as wettable powders or emulsion concentrates, are then applied to the surface of the soil cover in the form of an aqueous suspension or emulsion at an application rate of from 600 to 800 l of water/ha (converted), in various dosages. After the treatment, the pots are placed in a greenhouse and kept under good growth conditions for the weeds. After the test plants have emerged after a trial period of 3 to 4 weeks, the damage to the plants or the negative effect on emergence is rated visually by comparison with untreated controls. As shown by the test results, the novel compounds have good herbicidal pre-emergence activity against a broad spectrum of weed grasses and broad-leaved weeds.

| Structure (SMILES) | herbicidal activity post-emergence (rated visually) [1] | herbicidal activity pre-emergence (damage to the plants or negative effect on emergence, rated visually) [2] |
| --- | --- | --- |
| CC(CCCCOc1ccccc1)Nc1nc(N)nc(C(C)F)n1 (stereo not shown) [Example 626] | good and in most cases very good herbicidal activity | good and in most cases very good herbicidal activity |
| CC(CCCOc1ccccc1)Nc1nc(N)nc(C(C)(C)F)n1 (stereo not shown) [Example 501] | good and in most cases very good herbicidal activity | good and in most cases very good herbicidal activity |
| CCC(CCCOc1ccccc1)Nc1nc(N)nc(C(C)C)n1 (stereo not shown) [Example 510] | good and in most cases very good herbicidal activity | good and in most cases very good herbicidal activity |
| Cc1cc(C)cc(OCCC(C)Nc2nc(N)nc(C(F)(F)C(F)F)n2)c1 (stereo not shown) [Example 329] | – | good and in most cases very good herbicidal activity |
| Cc1cccc(CNC(=O)C(C)Nc2nc(N)nc(C(C)(C)F)n2)c1 (stereo not shown) [Example 926] | good and in most cases very good herbicidal activity | good and in most cases very good herbicidal activity |
| CC(CCOc1cc(F)cc(F)c1)Nc1nc(N)nc(C(F)(F)C(F)F)n1 (stereo not shown) [Example 297] | good and in most cases very good herbicidal activity | good and in most cases very good herbicidal activity |
| CC(CCCCOc1ccccc1)Nc1nc(N)nc(C(F)(F)C(F)F)n1 (stereo not shown) [Example 696] | good and in most cases very good herbicidal activity | good and in most cases very good herbicidal activity |
| CCC(COCCOc1ccccc1)Nc1nc(N)nc(C(C)C)n1 (stereo not shown) [Example 1345] | good and in most cases very good herbicidal activity | good and in most cases very good herbicidal activity |
| CC(CCCCOc1ccccc1)Nc1nc(N)nc(C(C)(C)F)n1 (stereo not shown) [Example 609] | good and in most cases very good herbicidal activity | good and in most cases very good herbicidal activity |
| CCCc1nc(N)nc(NC(C)COCCOc2ccccc2)n1 (stereo not shown) [Example 1404] | good and in most cases very good herbicidal activity | good and in most cases very good herbicidal activity |
| CCC(CCCCOc1ccccc1)Nc1nc(N)nc(C(C)(C)F)n1 (stereo not shown) [Example 598] | good and in most cases very good herbicidal activity | good and in most cases very good herbicidal activity |
| Cc1ccccc1C(=O)OCCNc1nc(N)nc(C(C)C)n1 [Example 43] | good and in most cases very good herbicidal activity | – |
| Cc1cccc(OCCCC(C)Nc2nc(N)nc(C(C)(C)F)n2)c1 (stereo not shown) [Example 502] | good and in most cases very good herbicidal activity | good and in most cases very good herbicidal activity |
| CC(F)c1nc(N)nc(NC(CCCCOc2ccccc2)C2CC2)n1 (stereo not shown) [Example 681] | good and in most cases very good herbicidal activity | good and in most cases very good herbicidal activity |
| CC(C)(F)c1nc(N)nc(NC(CCCOc2ccccc2)C2CC2)n1 (stereo not shown) [Example 528] | good and in most cases very good herbicidal activity | good and in most cases very good herbicidal activity |
| CC(COCCOc1ccccc1)Nc1nc(N)nc(C(C)(C)F)n1 (stereo not shown) [Example 1385] | good and in most cases very good herbicidal activity | good and in most cases very good herbicidal activity |
| CCC(COCCOc1cccc(Cl)c1)Nc1nc(N)nc(C(C)(C)F)n1 (stereo not shown) [Example 1364] | good and in most cases very good herbicidal activity | good and in most cases very good herbicidal activity |
| CC(COC(=O)c1cccc(C(F)(F)F)c1)Nc1nc(N)nc(C(C)C)n1 (stereo not shown) [Example 78] | good and in most cases very good herbicidal activity | good and in most cases very good herbicidal activity |

| Structure (SMILES) | herbicidal activity post-emergence (rated visually) [1] | herbicidal activity pre-emergence (damage to the plants or negative effect on emergence, rated visually) [2] |
| --- | --- | --- |
| Cc1cc(C)cc(CON=CCNc2nc(N)nc(C(C)(C)F)n2)c1 [Example 1236] | good and in most cases very good herbicidal activity | good and in most cases very good herbicidal activity |
| Cc1cc(C)cc(CON=CCNc2nc(N)nc(C(C)C)n2)c1 [Example 1251] | good and in most cases very good herbicidal activity | good and in most cases very good herbicidal activity |
| CCCCc1ccc(C(=O)OCC(C)Nc2nc(N)nc(C(C)C)n2)cc1 (stereo not shown) [Example 184] | good and in most cases very good herbicidal activity | – |
| CC(C)(F)c1nc(N)nc(NCC=NOCc2ccccc2)n1 [Example 1252] | good and in most cases very good herbicidal activity | good and in most cases very good herbicidal activity |
| Cc1cccc(OCCCC(Nc2nc(N)nc(C(C)(C)F)n2)C2CC2)c1 (stereo not shown) [Example 582] | good and in most cases very good herbicidal activity | good and in most cases very good herbicidal activity |
| CCC(CCOc1cc(F)cc(F)c1)Nc1nc(N)nc(C(C)C)n1 (stereo not shown) [Example 305] | good and in most cases very good herbicidal activity | good and in most cases very good herbicidal activity |
| CCC(CCCCOc1ccccc1)Nc1nc(N)nc(C(F)(F)C(F)F)n1 (stereo not shown) [Example 605] | good and in most cases very good herbicidal activity | good and in most cases very good herbicidal activity |
| CCC(CCCOc1ccccc1)Nc1nc(N)nc(C(C)(C)F)n1 (stereo not shown) [Example 490] | good and in most cases very good herbicidal activity | good and in most cases very good herbicidal activity |
| Cc1cc(C)cc(CON=CCNc2nc(N)nc(C(C)F)n2)c1 (stereo not shown) [Example 1234] | good and in most cases very good herbicidal activity | good and in most cases very good herbicidal activity |
| Cc1cc(C)cc(COCC(C)Nc2nc(N)nc(C(C)(C)F)n2)c1 (stereo not shown) [Example 64] | – | good and in most cases very good herbicidal activity |
| CCCc1nc(N)nc(NC(CC)CCCCOc2ccccc2)n1 (stereo not shown) [Example 618] | good and in most cases very good herbicidal activity | good and in most cases very good herbicidal activity |
| Cc1cc(C)cc(OCCC(C)Nc2nc(N)nc(C(C)C)n2)c1 (stereo not shown) [Example 339] | – | good and in most cases very good herbicidal activity |
| CC(COCc1cccc(Br)c1)Nc1nc(N)nc(C(C)(C)F)n1 (stereo not shown) [Example 76] | – | good and in most cases very good herbicidal activity |
| CC(C)c1nc(N)nc(NCCOC(=O)c2ccccc2Cl)n1 [Example 20] | good and in most cases very good herbicidal activity | – |
| CCC(COC(=O)c1ccc(F)cc1Cl)Nc1nc(N)nc(C(C)C)n1 (stereo not shown) [Example 23] | good and in most cases very good herbicidal activity | – |
| CC(COCc1ccc(Cl)cc1)Nc1nc(N)nc(C(C)(C)F)n1 (stereo not shown) [Example 167] | – | good and in most cases very good herbicidal activity |
| Cc1cc(C)cc(OCCC(C)Nc2nc(N)nc(C(C)(C)F)n2)c1 (stereo not shown) [Example 282] | – | good and in most cases very good herbicidal activity |
| CC(C)c1nc(N)nc(NCCOC(=O)c2cccc(C(F)(F)F)c2)n1 [Example 80] | good and in most cases very good herbicidal activity | – |
